SMILES strings stand for the structures. Like-named read-outs stand apart in the source and are kept apart here. Where only a bound is given, the exact number is not on record here.

One assay has as its target AR / CBP ternary complex (Homo sapiens, UniProt P10275+Q92793). The assay can be described thus: Ternary complex formation assay (sandwich ELISA, AR capture, CBP antibody detection) in VCaP cell lysates. It is filed as cell-based. The procedure, abridged:
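VCaP cells in 5% charcoal-stripped FBS were cultured ≥3 days and then given bifunctional compound for 1.5 h. Lysates went onto AR-antibody-coated plates. Bound CBP (or p300) was detected with a rabbit antibody plus HRP anti-rabbit, using QuantaRed chemifluorescence (ex 570/em 585) read immediately, at 5 min and at 15 min.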

A further assay concerns VCaP cells. The assay can be described thus: VCaP growth inhibition assay (CTG). Conditions: Homo sapiens, 216 h, 30 pM R1881, 9 days. Format: cell-based. Summed up:
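VCaP cells in phenol red-free DMEM with 5% charcoal-stripped serum were stimulated with 30 pM R1881 (final) and treated with compound from 100 nM to 10 fM final (1:5 dilutions) for 9 days at 37 °C. Viability was read by CellTiter-Glo luminescence, and IC50 came from 4-parameter logistic fits.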

Where [1] appears, read: treated 1.5 hours, rabbit CBP or p300 antibody detection, average, read-out: Average Ternary Complex.
[2] abbreviates: read-out: Average Ternary Complex, treated 1.5 hours, rabbit CBP or p300 antibody detection.

Sequence of AR / CBP ternary complex (P10275 whole entry): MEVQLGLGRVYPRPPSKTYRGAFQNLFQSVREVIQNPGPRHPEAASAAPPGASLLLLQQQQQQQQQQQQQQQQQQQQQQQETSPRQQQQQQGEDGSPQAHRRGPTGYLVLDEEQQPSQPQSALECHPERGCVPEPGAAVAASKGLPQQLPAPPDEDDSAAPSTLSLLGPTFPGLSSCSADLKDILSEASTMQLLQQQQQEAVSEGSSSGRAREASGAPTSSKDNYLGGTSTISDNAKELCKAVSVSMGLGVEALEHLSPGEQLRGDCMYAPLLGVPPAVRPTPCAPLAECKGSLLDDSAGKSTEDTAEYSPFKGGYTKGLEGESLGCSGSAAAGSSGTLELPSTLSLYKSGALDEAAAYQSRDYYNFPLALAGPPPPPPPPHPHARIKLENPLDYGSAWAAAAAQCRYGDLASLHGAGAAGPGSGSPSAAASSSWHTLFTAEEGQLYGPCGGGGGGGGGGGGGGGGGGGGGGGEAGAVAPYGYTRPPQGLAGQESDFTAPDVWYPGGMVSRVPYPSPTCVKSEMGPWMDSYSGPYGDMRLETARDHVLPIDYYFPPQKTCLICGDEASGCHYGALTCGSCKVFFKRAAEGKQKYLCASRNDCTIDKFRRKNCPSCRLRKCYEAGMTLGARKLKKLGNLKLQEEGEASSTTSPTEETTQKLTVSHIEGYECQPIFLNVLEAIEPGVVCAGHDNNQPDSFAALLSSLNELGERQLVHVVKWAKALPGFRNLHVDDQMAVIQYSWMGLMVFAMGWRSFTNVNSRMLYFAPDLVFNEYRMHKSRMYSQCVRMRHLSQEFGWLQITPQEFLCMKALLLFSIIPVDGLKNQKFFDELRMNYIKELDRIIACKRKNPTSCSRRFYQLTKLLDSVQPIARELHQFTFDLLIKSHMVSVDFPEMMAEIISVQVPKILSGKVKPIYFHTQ
Sequence of AR / CBP ternary complex (Q92793 2-2442): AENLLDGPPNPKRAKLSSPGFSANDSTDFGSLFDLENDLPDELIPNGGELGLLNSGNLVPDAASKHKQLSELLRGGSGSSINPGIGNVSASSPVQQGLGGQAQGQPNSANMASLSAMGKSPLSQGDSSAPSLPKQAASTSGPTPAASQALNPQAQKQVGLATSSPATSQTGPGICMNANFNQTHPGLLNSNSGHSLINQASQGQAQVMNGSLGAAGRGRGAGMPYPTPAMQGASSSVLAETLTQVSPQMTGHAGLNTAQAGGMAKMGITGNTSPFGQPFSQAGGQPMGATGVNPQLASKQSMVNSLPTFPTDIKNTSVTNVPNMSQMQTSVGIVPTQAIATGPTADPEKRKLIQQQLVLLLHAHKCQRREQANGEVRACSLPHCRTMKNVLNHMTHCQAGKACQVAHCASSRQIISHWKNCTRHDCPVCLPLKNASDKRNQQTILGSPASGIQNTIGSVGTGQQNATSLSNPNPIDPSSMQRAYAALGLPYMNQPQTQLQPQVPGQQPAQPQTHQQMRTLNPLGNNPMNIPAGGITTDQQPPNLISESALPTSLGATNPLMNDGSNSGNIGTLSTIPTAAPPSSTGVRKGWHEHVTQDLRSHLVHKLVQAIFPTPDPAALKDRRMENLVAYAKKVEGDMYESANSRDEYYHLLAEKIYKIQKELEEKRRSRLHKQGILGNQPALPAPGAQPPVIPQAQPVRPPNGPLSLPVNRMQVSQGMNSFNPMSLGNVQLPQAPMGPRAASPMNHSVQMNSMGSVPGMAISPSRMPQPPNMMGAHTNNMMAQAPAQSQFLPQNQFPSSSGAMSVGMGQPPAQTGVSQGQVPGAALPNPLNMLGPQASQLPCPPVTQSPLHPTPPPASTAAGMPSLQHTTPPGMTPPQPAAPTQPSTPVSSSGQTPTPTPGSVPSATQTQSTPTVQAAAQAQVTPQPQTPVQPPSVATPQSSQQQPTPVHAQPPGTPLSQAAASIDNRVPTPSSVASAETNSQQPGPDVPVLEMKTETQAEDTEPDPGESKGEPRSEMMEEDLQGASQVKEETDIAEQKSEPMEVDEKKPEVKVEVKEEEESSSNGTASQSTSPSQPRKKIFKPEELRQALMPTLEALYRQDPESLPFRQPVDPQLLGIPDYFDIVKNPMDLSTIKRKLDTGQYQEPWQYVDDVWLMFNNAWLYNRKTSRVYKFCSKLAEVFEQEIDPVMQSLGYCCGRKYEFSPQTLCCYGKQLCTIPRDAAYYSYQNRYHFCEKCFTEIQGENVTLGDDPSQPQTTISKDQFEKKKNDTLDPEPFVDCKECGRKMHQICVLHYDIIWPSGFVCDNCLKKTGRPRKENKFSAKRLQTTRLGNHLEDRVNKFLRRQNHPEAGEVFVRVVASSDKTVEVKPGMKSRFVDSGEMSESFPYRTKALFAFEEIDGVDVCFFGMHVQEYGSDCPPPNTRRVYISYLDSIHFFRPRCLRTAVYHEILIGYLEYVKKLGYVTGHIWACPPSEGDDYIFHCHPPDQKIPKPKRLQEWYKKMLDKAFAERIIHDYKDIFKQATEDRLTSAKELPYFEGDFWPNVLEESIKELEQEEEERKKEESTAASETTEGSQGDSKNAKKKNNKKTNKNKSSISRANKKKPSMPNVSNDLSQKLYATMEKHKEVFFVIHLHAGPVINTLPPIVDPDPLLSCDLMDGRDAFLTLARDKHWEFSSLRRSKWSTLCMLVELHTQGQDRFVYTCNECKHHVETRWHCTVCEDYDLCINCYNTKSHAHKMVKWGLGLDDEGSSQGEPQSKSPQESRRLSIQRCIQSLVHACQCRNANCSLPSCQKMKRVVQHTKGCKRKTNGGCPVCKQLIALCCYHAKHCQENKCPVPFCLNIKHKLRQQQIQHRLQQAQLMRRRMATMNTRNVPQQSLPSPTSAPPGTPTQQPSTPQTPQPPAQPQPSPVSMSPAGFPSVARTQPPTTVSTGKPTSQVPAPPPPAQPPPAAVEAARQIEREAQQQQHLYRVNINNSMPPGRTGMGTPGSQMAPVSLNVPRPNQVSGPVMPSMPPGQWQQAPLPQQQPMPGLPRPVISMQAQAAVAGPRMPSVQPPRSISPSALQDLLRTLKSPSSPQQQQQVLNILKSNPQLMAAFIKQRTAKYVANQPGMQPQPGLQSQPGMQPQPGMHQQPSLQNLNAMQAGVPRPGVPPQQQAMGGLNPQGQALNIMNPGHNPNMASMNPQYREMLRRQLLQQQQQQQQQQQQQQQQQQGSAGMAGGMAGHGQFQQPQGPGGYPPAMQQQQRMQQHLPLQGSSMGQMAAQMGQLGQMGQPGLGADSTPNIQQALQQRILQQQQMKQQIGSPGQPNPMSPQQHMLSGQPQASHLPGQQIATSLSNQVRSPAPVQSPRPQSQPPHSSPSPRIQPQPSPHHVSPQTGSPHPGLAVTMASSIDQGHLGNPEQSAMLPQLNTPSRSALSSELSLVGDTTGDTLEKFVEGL

`C[C@@H]1CC(=O)Nc2cccc(N3CCCc4cc(-c5cnn(CCC6CCN(c7ccc(C(=O)N[C@H]8CC[C@H](Oc9ccc(C#N)c(Cl)c9)CC8)nn7)CC6)c5)c(C(F)F)cc43)c2N1` [Compound 36, N-[4-(3-chloro-4-cyano-phenoxy)cyclohexyl]-6-[4-[2-[4-[7-(difluoromethyl)-1-[(4R)-4-methyl-2-oxo-1,3,4,5-tetrahydro-1,5-benzodiazepin-6-yl]-3,4-dihydro-2H-quinolin-6-yl]pyrazol-1-yl]ethyl]-1-piperidyl]pyridazine-3-carboxamide]: the EC50 at AR / CBP ternary complex (setting [1]) was in the range of 10 to 100 nM. This molecule yielded an IC50 with VCaP cells of 1 to 100 nM.
On the same counts, the results for `Cc1cc2c(N3CCN(C)c4cc(-c5cnn(C)c5)c(C#N)cc43)cc(OCC3CCN(c4ccc(C(=O)N[C@H]5CC[C@H](Oc6ccc(C#N)c(Cl)c6)CC5)nn4)CC3)cc2n(C)c1=O` [Compound 37, N-[4-(3-chloro-4-cyano-phenoxy)cyclohexyl]-6-[4-[[5-[7-cyano-4-methyl-6-(1-methylpyrazol-4-yl)-2,3-dihydroquinoxalin-1-yl]-1,3-dimethyl-2-oxo-7-quinolyl]oxymethyl]-1-piperidyl]pyridazine-3-carboxamide] are above 100 nM and 0.1 to 1 nM.
Turning to `Cc1cc2c(N3CCN(C)c4cc(-c5cnn(C)c5)c(C#N)cc43)cc(OCCC3CCN(c4ccc(C(=O)N[C@H]5CC[C@H](Oc6ccc(C#N)c(Cl)c6)CC5)nn4)CC3)cc2n(C)c1=O` [Compound 38, N-[4-(3-chloro-4-cyano-phenoxy)cyclohexyl]-6-[4-[2-[[5-[7-cyano-4-methyl-6-(1-methylpyrazol-4-yl)-2,3-dihydroquinoxalin-1-yl]-1,3-dimethyl-2-oxo-7-quinolyl]oxy]ethyl]-1-piperidyl]pyridazine-3-carboxamide], the EC50 at AR / CBP ternary complex (setting [1]) is above 100 nM. The molecule further gave an IC50 in the assay on VCaP cells of 0.1 to 1 nM.
In the same order, the values of `Cc1cc2c(N3CCN(C)c4cc(-c5cnn(C)c5)c(C#N)cc43)cc(OCCOC3CCN(c4ccc(C(=O)N[C@H]5CC[C@H](Oc6ccc(C#N)c(Cl)c6)CC5)nn4)CC3)cc2n(C)c1=O` [Compound 39, N-[4-(3-chloro-4-cyano-phenoxy)cyclohexyl]-6-[4-[2-[[5-[7-cyano-4-methyl-6-(1-methylpyrazol-4-yl)-2,3-dihydroquinoxalin-1-yl]-1,3-dimethyl-2-oxo-7-quinolyl]oxy]ethoxy]-1-piperidyl]pyridazine-3-carboxamide] are below 1 nM and at most 0.1 nM.
For `CC(=O)N1CCc2c(c(N3CCCc4cc(-c5cnn(C)c5)c(C(F)F)cc43)nn2C2CC3(C2)CN(C(=O)C2CC4(C2)CN(c2ccc(C(=O)N[C@H]5CC[C@H](Oc6ccc(C#N)c(Cl)c6)CC5)nn2)C4)C3)C1` (stereo partly drawn) [Compound 40, 6-[6-[6-[5-acetyl-3-[7-(difluorodimethyl)-6-(1-methylpyrazol-4-yl)-3,4-dihydro-2H-quinolin-1-yl]-6,7-dihydro-4H-pyrazolo[4,3-c]pyridin-1-yl]-2-azaspiro[3.3]heptane-2-carbonyl]-2-azaspiro[3.3]heptan-2-yl]-N-[4-(3-chloro-4-cyano-phenoxy)cyclohexyl]pyridazine-3-carboxamide], at AR / CBP ternary complex (setting [1]), the EC50 was 1 to 10 nM. The molecule further gave an IC50 with VCaP cells of 0.1 to 1 nM.
In the same order, the values of `CC(=O)N1CCc2c(c(N3CCCc4cc(-c5cnn(C)c5)c(C(F)F)cc43)nn2C2CC3(C2)CN(CC2CC4(C2)CN(c2ccc(C(=O)N[C@H]5CC[C@H](Oc6ccc(C#N)c(Cl)c6)CC5)nn2)C4)C3)C1` (stereo partly drawn) [Compound 41, 6-[6-[[6-[5-acetyl-3-[7-(difluoromethyl)-6-(1-methylpyrazol-4-yl)-3,4-dihydro-2H-quinolin-1-yl]-6,7-dihydro-4H-pyrazolo[4,3-c]pyridin-1-yl]-2-azaspiro [3.3]heptan-2-yl]methyl]-2-azaspiro [3.3]heptan-2-yl]-N-[4-(3-chloro-4-cyano-phenoxy)cyclohexyl] pyridazine-3-carboxamide] are below 1 nM and at most 0.1 nM.
On the same counts, the results for `CC(=O)N1CCc2c(c(N3CCCc4ccc(C(F)F)cc43)nn2C2CC3(C2)CN(C(=O)C2CC4(C2)CN(c2ccc(C(=O)N[C@H]5CC[C@H](Oc6ccc(C#N)c(Cl)c6)CC5)nn2)C4)C3)C1` (stereo partly drawn) [Compound 42, 6-[6-[6-[5-acetyl-3-[7-(difluoromethyl)-3,4-dihydro-2H-quinolin-1-yl]-6,7-dihydro-4H-pyrazolo[4,3-c]pyridin-1-yl]-2-azaspiro[3.3]heptane-2-carbonyl]-2-azaspiro[3.3]heptan-2-yl]-N-[4-(3-chloro-4-cyano-phenoxy)cyclohexyl]pyridazine-3-carboxamide] are 1 to 10 nM and 0.1 to 1 nM.
Consider `CC(=O)N1CCc2c(c(N3CCCc4ccc(C(F)F)cc43)nn2C2CC3(C2)CN(CC2CC4(C2)CN(c2ccc(C(=O)N[C@H]5CC[C@H](Oc6ccc(C#N)c(Cl)c6)CC5)nn2)C4)C3)C1` (stereo partly drawn) [Compound 43, -[6-[[6-[5-acetyl-3-[7-(difluoromethyl)-3,4-dihydro-2H-quinolin-1-yl]-6,7-dihydro-4H-pyrazolo[4,3-c]pyridin-1-yl]-2-azaspiro [3.3]heptan-2-yl]methyl]-2-azaspiro [3.3]heptan-2-yl]-N-[4-(3-chloro-4-cyano-phenoxy)cyclohexyl] pyridazine-3-carboxamide], for which the EC50 on AR / CBP ternary complex (setting [1]) fell in the range of 1 to 10 nM. The molecule also registered an IC50 in the assay with VCaP cells of 0.1 to 1 nM.
In the same order, the values of `CC(=O)N1CCc2c(c(N3CCCc4cc(C#N)ccc43)nn2C2CC3(C2)CN(C(=O)C2CC4(C2)CN(c2ccc(C(=O)N[C@H]5CC[C@H](Oc6ccc(C#N)c(Cl)c6)CC5)nn2)C4)C3)C1` (stereo partly drawn) [Compound 44, 6-[6-[6-[5-acetyl-3-(6-cyano-3,4-dihydro-2H-quinolin-1-yl)-6,7-dihydro-4H-pyrazolo[4,3-c]pyridin-1-yl]-2-azaspiro [3.3]heptane-2-carbonyl]-2-azaspiro[3.3]heptan-2-yl]-N-[4-(3-chloro-4-cyano-phenoxy)cyclohexyl] pyridazine-3-carboxamide] are below 1 nM and 0.1 to 1 nM.
Take `CC(=O)N1CCc2c(c(N3CCCc4cc(C#N)ccc43)nn2C2CC3(C2)CN(CC2CC4(C2)CN(c2ccc(C(=O)N[C@H]5CC[C@H](Oc6ccc(C#N)c(Cl)c6)CC5)nn2)C4)C3)C1` (stereo partly drawn) [Compound 45, 6-[6-[[6-[5-acetyl-3-(6-cyano-3,4-dihydro-2H-quinolin-1-yl)-6,7-dihydro-4H-pyrazolo[4,3-c]pyridin-1-yl]-2-azaspiro [3.3]heptan-2-yl]methyl]-2-azaspiro[3.3]heptan-2-yl]-N-[4-(3-chloro-4-cyano-phenoxy)cyclohexyl] pyridazine-3-carboxamide]: the EC50 at AR / CBP ternary complex (setting [1]) is below 1 nM. This molecule registered an IC50 with VCaP cells of 0.1 to 1 nM.
In the same order, the values of `CC(=O)N1CCc2c(c(-c3cccc4cc(-c5cnn(CC6CC7(C6)CN(c6ccc(C(=O)N[C@H]8CC[C@H](Oc9ccc(C#N)c(Cl)c9)CC8)nn6)C7)c5)ncc34)nn2C2CCOCC2)C1` [Compound 46, 6-[6-[[4-[8-(5-acetyl-1-tetrahydropyran-4-yl-6,7-dihydro-4H-pyrazolo[4,3-c]pyridin-3-yl)-3-isoquinolyl]pyrazol-1-yl]methyl]-2-azaspiro[3.3]heptan-2-yl]-N-[4-(3-chloro-4-cyano-phenoxy)cyclohexyl]pyridazine-3-carboxamide] are below 1 nM and 0.1 to 1 nM.
For the molecule `CC(=O)N1CCc2c(c(-c3cccc4cc(-c5cnn(CC6CC7(C6)CN(c6ccc(C(=O)N[C@H]8CC[C@H](Oc9ccc(C#N)c(Cl)c9)CC8)nn6)C7)c5)ncc34)nn2C)C1` [Compound 47, 6-[6-[[4-[8-(5-acetyl-1-methyl-6,7-dihydro-4H-pyrazolo[4,3-c]pyridin-3-yl)-3-isoquinolyl]pyrazol-1-yl]methyl]-2-azaspiro[3.3]heptan-2-yl]-N-[4-(3-chloro-4-cyano-phenoxy)cyclohexyl]pyridazine-3-carboxamide], at AR / CBP ternary complex (setting [2]), the EC50 lay in the range of 1 to 10 nM. The same molecule showed an IC50 in the assay with VCaP cells of 0.1 to 1 nM.
On the same counts, the results for `CC(=O)N1CCc2c(c(-c3cccc4cc(-c5ccc(CCC6CC7(C6)CN(c6ccc(C(=O)N[C@H]8CC[C@H](Oc9ccc(C#N)c(Cl)c9)CC8)nn6)C7)nc5)ncc34)nn2C2CCOCC2)C1` [Compound 48] are below 1 nM and at most 0.1 nM.
As for `CC(=O)N1CCc2c(c(-c3cccc4cc(-c5cnn(CCC6CC7(C6)CN(c6ccc(C(=O)N[C@H]8CC[C@H](Oc9ccc(C#N)c(Cl)c9)CC8)nn6)C7)c5)ncc34)nn2C2CCOCC2)C1` [Compound 49, 6-[6-[2-[4-[8-(5-acetyl-1-tetrahydropyran-4-yl-6,7-dihydro-4H-pyrazolo[4,3-c]pyridin-3-yl)-3-isoquinolyl]pyrazol-1-yl]ethyl]-2-azaspiro[3.3]heptan-2-yl]-N-[4-(3-chloro-4-cyano-phenoxy)cyclohexyl]pyridazine3-carboxamide], the EC50 on AR / CBP ternary complex (setting [1]) is below 1 nM. Also, in the assay on VCaP cells, the IC50 was in the range of 0.1 to 1 nM.
With `CC(=O)N1CCc2c(c(-c3cccc4cc(-c5cnn(CCC6CC7(C6)CN(c6ccc(C(=O)N[C@H]8CC[C@H](Oc9ccc(C#N)c(Cl)c9)CC8)nn6)C7)c5)ncc34)nn2C)C1` [Compound 50, 6-[6-[2-[4-[8-(5-acetyl-1-methyl-6,7-dihydro-4H-pyrazolo[4,3-c]pyridin-3-yl)-3-isoquinolyl]pyrazol-1-yl]ethyl]-2-azaspiro[3.3]heptan-2-yl]-N-[4-(3-chloro-4-cyano-phenoxy)cyclohexyl]pyridazine-3-carboxamide], the EC50 on AR / CBP ternary complex (setting [1]) was below 1 nM. Besides, the IC50 in the assay with VCaP cells was at most 0.1 nM.

(Values after US20250136578A1 (Kolm Therapeutics Inc., priority 2023, published 2025).)
